Test results taken from the Bradley open melting point set (2014).
Where “and” joins values, the source holds several entries; their conditions need not be identical. Identical values can stand only once.

melting point	Compound
-70 °C	CN(C)CCCN [N,N-dimethyl-1,3-propanediamine]
128 °C	CN(C)c1ccc(C2CNCCN2)cc1 (stereo unspecified) [N,N-dimethyl-4-(2-piperazinyl)aniline]
165 °C	CN(C)c1ccc([N+](=O)[O-])cc1 [N,N-dimethyl-4-nitroaniline]
-57 °C	CCCCCCCCN(C)C [N,N-dimethyl-n-octylamine]
53 °C	Cc1ccccc1NC=O [N-(2-Methylphenyl)formamide]
90 °C	CC(=O)NC1=C(C)CCCC1 [N-(2-methylcyclohex-1-en-1-yl)acetamide]
105 °C	CCCCc1ccc(NC(C)=O)cc1 [N-(4-butylphenyl)acetamide]
65 °C and 62.3 °C and 63 °C	COc1ccc(C=Nc2ccccc2)cc1 [N-(4-methoxybenzylidene)aniline]
218 °C	CC(=O)Nc1cccc2c([N+](=O)[O-])cccc12 [N-(5-nitronaphthalen-1-yl)acetamide]
165 °C	O=C1CCC(=O)N1C1CCCCC1 [N-(cyclohexyl)succinimide]
205 °C	CC(=O)N[C@H]1C(O)O[C@H](CO)[C@@H](O)[C@@H]1O (stereo partly drawn) [N-Acetyl-D-glucosamine]
217 °C	O=C(NC/1=N/C(=O)c2ncn(c2N\1)COCCO)C [N-Acetylacyclovir]
43 °C	CCCCCCCCCCNCCCCCCCCCC [N-Decyldecan-1-amine]
119 °C	O=C(c1ccccc1)N(O)c1ccccc1 [N-Hydroxy-N-phenylbenzamide]
14 °C	CCCCCCCCNCCCCCCCC [N-Octyloctan-1-amine]
-44 °C	CCCCCNCCCCC [N-Pentylpentan-1-amine]
-40 °C	CCCNCCC [N-Propylpropan-1-amine]
-34 °C	CCCCC(=O)O [N-Valeric Acid]
152 °C	CC(=O)Nc1ccccc1C1C=c2ccccc2=N1 (stereo unspecified) [N-[2-(1H-indol-2-yl)phenyl]acetamide]
119 °C	CC(=O)Nc1ccccc1C#Cc1ccccc1 [N-[2-(phenylethynyl)phenyl]acetamide]
173 °C	CC(=O)Nc1ccc(-c2ccc3nn(-c4ccccc4)nc3c2)cc1 [N-[4-(2-phenyl-2H-benzotriazol-5-yl)phenyl]acetamide]
110 °C	CC(=O)N[C@@H](CS)C(=O)O [N-acetyl-l-cysteine]

melting point	Compound
168 °C	CC(=O)N[C@@H](Cc1ccccc1)C(=O)O [N-acetyl-l-phenylalanine]
119 °C	O=C(c1ccccc1)N(O)c1ccccc1 [N-benzoyl-N-phenylhydroxylamine]
106 °C	O=C(NCc1ccccc1)c1ccccc1 [N-benzylbenzamide]
106 °C	O=C(C[C@H](NC(=O)OCc1ccccc1)C(=O)O)OCc1ccccc1 [N-benzyloxycarbonyl-l-aspartic acid 4-benzyl ester]
67 °C	COC(=O)[C@H](CCC(=O)O)NC(=O)OCc1ccccc1 [N-benzyloxycarbonyl-l-glutamic acid 1-methyl ester]
86 °C	O=C(N[C@@H](Cc1ccccc1)C(=O)O)OCc1ccccc1 [N-benzyloxycarbonyl-l-phenylalanine]
119 °C	O=C(N[C@@H](CO)C(=O)O)OCc1ccccc1 [N-benzyloxycarbonyl-l-serine]
135 °C	CC(C)(C)OC(=O)N[C@@H](Cc1ccc(Cl)cc1Cl)C(=O)O [N-boc-2,4-dichloro-L-phenylalanine]
98 °C	CC(C)(C)OC(=O)N[C@](C)(C(=O)O)c1ccc2ccccc2c1 [N-boc-2-(2-naphthyl)-D-alanine]
74 °C	CC(C)(C)OC(=O)N[C@@H](Cc1cccs1)C(=O)O [N-boc-3-(2-thienyl)-L-alanine]
49 °C	CSCC[C@@H](NC(=O)OC(C)(C)C)C(=O)O [N-boc-D-methionine]
134 °C	CC(C)(C)OC(=O)N1CCC[C@@H]1C(=O)O [N-boc-D-proline]
134 °C	CC(C)(C)OC(=O)N1CCC[C@H]1C(=O)O [N-boc-L-proline]
40 °C	CCNC(=O)OC(C)(C)C [N-boc-ethylamine]
89 °C	CC(C)(C)OC(=O)NCC(=O)O [N-boc-glycine]
-22 °C	CCCCOC(=O)c1ccccc1 [N-butyl benzoate]
-92 °C	CCCCOC(=O)CCC [N-butyl butyrate]
-10 °C	CCCCCCCCCCCC(=O)OCCCC [N-butyl dodecanoate]
-30 °C	CCCCCCCCCC [N-decane]
-10 °C	CCCCCCCCCCCC [N-dodecane]
45 °C	CCN1C(=O)C=CC1=O [N-ethylmaleimide]
120 °C	ON(/C=C/c1ccccc1)c1ccccc1 [N-hydroxy-N-[(E)-2-phenylethenyl]aniline]

melting point	Compound
-32 °C	CC(C)Nc1ccccc1 [N-isopropylaniline]
130 °C	CNC[C@H](O)[C@@H](O)[C@H](O)[C@H](O)CO [N-methyl-D-glucamine]
28 °C	CCCCCCCCCCCCCCCCCC [N-octadecane]
-100 °C	CCCCCOC(C)=O [N-pentyl acetate]
-58 °C	CCCCCC1CCCCC1 [N-pentylcyclohexane]
103 °C	CC(=O)N(Nc1ccccc1/N=N/c1ccccc1)c1ccccc1 [N-phenyl-N'-{2-[(E)-phenyldiazenyl]phenyl}acetohydrazide]
74 °C	Nc1ccc(Nc2ccccc2)cc1 [N-phenyl-p-phenylenediamine]
-92 °C	CCCOC(C)=O [N-propyl acetate]
-100 °C	CCCc1ccccc1 [N-propylbenzene]
102 °C	CCCNC(N)=O [N-propylurea]
106 °C	CCCCCCCCCCCCCC(N)=O [N-tetradecanamide]
6 °C	CCCCCCCCCCCCCC [N-tetradecane]
9 °C	CCCCCCCCCCCCCCc1ccccc1 [N-tetradecylbenzene]
-5 °C	CCCCCCCCCCCCC [N-tridecane]
-26 °C	CCCCCCCCCCC [N-undecane]
98 °C	O=C(Nc1ccccc1/C=C/c1ccccc1)c1ccccc1 [N-{2-[(E)-2-phenylethenyl]phenyl}benzamide]
130 °C	CC(C)(C)NCC(O)COc1cccc2c1C[C@H](O)[C@H](O)C2 (stereo partly specified) [Nadolol]
77 °C	c1ccc2ccccc2c1 [Naphthalene]
61 °C	COc1ccc2cc(C(C)COC(C)=O)ccc2c1 (stereo unspecified) [Naproxol acetate]
268 °C	O=C1CN(/N=C/c2ccc([N+](=O)[O-])o2)C(=O)N1 [Nitrofurantoin]
180 °C	CN1Cc2c(N)cccc2C(c2ccccc2)C1 (stereo unspecified) [Nomifensine]
66 °C	CCCCCCCCCCCCCCCCCCCCCCCCCCCCC [Nonacosane]

melting point	Compound
45.5 °C	Cc1ccc(-n2c(C)ccc2C)cc1 [OSM-S-26]
110 °C	Cc1ccc(-n2c(C)cc(C=O)c2C)cc1 [OSM-S-29]
67.5 °C	CCOC(=O)c1cc(C)n(-c2ccc(C(F)(F)F)cc2)c1C [OSM-S-32]
86 °C	Cc1cc(C=O)c(C)n1-c1ccc(C(F)(F)F)cc1 [OSM-S-34]
60.5 °C	CCOC(=O)c1ccc(-n2c(C)ccc2C)cc1 [OSM-S-40]
182 °C	Cc1cc(/C=C2\SC(N(CC#N)c3ccccc3)=NC2=O)c(C)n1-c1ccc(C(F)(F)F)cc1 [OSM-S-42]
62.5 °C	Cc1cc(C=O)c(C)n1-c1ccccn1 [OSM-S-44]
238 °C	CC(=O)N(C1=NC(=O)/C(=C/c2cc(C)n(-c3ccccc3)c2C)S1)c1ccccc1 [OSM-S-49]
154 °C	Cc1c(C(=O)OCC(N)=O)cnn1-c1ccccc1 [OSM-S-57]
56 °C	CCCCCCCCCCCCCCCCCCN [Octadecan-1-amine]
100 °C	CC(C)NCC(O)c1cc(O)cc(O)c1 (stereo unspecified) [Orciprenaline]
346 °C	O=C(O)c1cc(=O)[nH]c(=O)[nH]1 [Orotic Acid]
158 °C	O=C(O)CCc1nc(-c2ccccc2)c(-c2ccccc2)o1 [Oxaprozin]
198 °C	CC(C)(S)[C@@H](N)C(=O)O [Penicillamine]
-50 °C	CCCC(C)O (stereo unspecified) [Pentan-2-ol]
-78 °C	CCCC(C)=O [Pentan-2-one]
-91.5 °C	CCCCC=O [Pentanal]
135 °C	CCOc1ccc(NC(C)=O)cc1 [Phenacetin]
100 °C	c1ccc2c(c1)ccc1ccccc12 [Phenanthrene]
158 °C	c1ccc2nc3ccccc3nc2c1 [Phenazine]
101 °C	CCOc1ccc(NC(=O)CN)cc1 [Phenokoll]

Compound	melting point
CN(C)C(=O)Nc1ccc(Cl)cc1 [N-(4-chlorophenyl)-N',N'-dimethylurea]	173 °C
CC(=O)NCO [N-(hydroxymethyl)acetamide]	50 °C
C=CC(=O)OCCCC [N-butyl acrylate]	-64 °C
CCCCCCP(=O)(O)O [N-hexylphosphonic acid]	109 °C
CN(CCO)CCO [N-methyldiethanolamine]	-21 °C
O=[N+]([O-])OCC(CO[N+](=O)[O-])O[N+](=O)[O-] [Nitroglycerin]	13.5 °C
O=C(O)C(F)(F)C(F)(F)C(F)(F)C(F)(F)C(F)(F)C(F)(F)C(F)(F)C(F)(F)C(F)(F)F [Nonadecafluorodecanoic acid]	78 °C
CCOP(=S)(OCC)Oc1nc(Cl)c(Cl)cc1Cl [O,O-Diethyl O-(3,5,6-trichloropyridin-2-yl) phosphorothioate]	42.5 °C
COP(=S)(OC)Oc1ccc([N+](=O)[O-])cc1 [O,O-Dimethyl O-(4-nitrophenyl) phosphorothioate]	36 °C
Clc1ccc(-c2ccc(Cl)cc2)cc1 [PCB-15]	149 °C
Oc1c(Cl)c(Cl)c(Cl)c(Cl)c1Cl [Pentachlorophenol]	190 °C
Oc1c(F)c(F)c(F)c(F)c1F [Pentafluorophenol]	35 °C
O=C1C(=O)c2ccccc2-c2ccccc21 [Phenanthrene-9,10-dione]	210 °C
CCC1(c2ccccc2)C(=O)NC(=O)NC1=O [Phenobarbital]	174 °C
